SMILES strings stand for the structures. Where a name gives a salt, the structure may show the parent alone.

recombinant human enteropeptidase, sequence (P98073 whole entry): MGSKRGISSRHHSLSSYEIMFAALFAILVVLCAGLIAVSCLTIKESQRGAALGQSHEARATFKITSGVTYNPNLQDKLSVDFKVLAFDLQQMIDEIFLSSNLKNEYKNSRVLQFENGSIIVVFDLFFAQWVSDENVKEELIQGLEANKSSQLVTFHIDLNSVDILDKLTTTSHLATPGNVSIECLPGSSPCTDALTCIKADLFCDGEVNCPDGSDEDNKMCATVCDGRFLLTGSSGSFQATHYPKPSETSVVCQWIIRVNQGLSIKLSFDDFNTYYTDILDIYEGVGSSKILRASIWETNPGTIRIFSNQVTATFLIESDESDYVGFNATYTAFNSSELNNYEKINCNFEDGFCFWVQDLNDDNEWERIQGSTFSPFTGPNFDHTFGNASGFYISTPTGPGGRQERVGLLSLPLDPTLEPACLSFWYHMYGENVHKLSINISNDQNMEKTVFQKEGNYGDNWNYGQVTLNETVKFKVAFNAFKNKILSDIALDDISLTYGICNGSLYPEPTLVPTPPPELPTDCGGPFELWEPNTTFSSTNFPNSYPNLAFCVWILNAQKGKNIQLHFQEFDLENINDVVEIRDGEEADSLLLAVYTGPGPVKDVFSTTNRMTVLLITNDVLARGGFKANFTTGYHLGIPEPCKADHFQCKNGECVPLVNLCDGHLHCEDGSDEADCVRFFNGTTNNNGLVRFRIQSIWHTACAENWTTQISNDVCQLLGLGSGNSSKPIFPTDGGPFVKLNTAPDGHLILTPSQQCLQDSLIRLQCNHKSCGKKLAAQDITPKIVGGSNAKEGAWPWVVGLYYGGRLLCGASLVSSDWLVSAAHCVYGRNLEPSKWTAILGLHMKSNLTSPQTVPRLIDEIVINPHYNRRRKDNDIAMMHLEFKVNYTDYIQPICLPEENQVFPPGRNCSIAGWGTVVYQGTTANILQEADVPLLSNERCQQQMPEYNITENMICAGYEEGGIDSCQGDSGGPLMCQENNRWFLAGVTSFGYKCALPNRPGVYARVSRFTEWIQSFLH

The test concerns the target recombinant human enteropeptidase (Homo sapiens (Human), UniProt P98073). Description: Measurement of enteropeptidase inhibitory activity. It is filed as biochemical. The following applies: Dixon plot. How it is done: Measurement of Enteropeptidase Inhibitory Activity
Using a 96 well plate (#3915, Costar), a test compound (25 μL), 400 mM Tris-HCl buffer (pH 8.0, 25 μL) and 0.5 mg/mL fluorescence enzyme substrate (Gly-Asp-Asp-Asp-Asp-Lys-β-Naphtylamide, 25 μL) were mixed, and recombinant human enteropeptidase (R&D Systems, Inc., 25 μL) was added. Using a fluorescence plate reader fmax (Molecular Devices, Inc.), the reaction rate was measured from the time-course changes at excitation wavelength 320 nm and fluorescence wavelength 405 nm. The Ki value was calculated from the concentration of the test compound, reciprocal of reaction rate, and Km value of the enzyme substrate, and by using Dixon plot.
As to `CC(Cc1ccc(C(=O)Oc2ccc(C(=N)N)cc2)o1)C(=O)O` (stereo in doubt) [Compound A-42, 3-[5-(4-amidinophenoxycarbonyl)furan-2-yl]-2R-methylpropionic acid trifluoroacetic acid salt], the Ki was 0.71 nM. As for `C/C(=C\c1ccc(C(=O)Oc2ccc(C(=N)N)cc2)o1)C(=O)N[C@@H](CO)C(=O)O` [Compound A-1], the figure is 2.27 nM; as for `C/C(=C\c1ccc(C(=O)Oc2ccc(C(=N)N)cc2)o1)C(=O)NCC(=O)O` [Compound A-2], 1.97 nM; as for `C/C(=C\c1ccc(C(=O)Oc2ccc(C(=N)N)cc2)o1)C(=O)O` [Compound A-3, (2E)-3-[5-(4-amidinophenoxycarbonyl)-furan-2-yl]-2-methylpropenoic acid trifluoroacetic acid salt], 1.15 nM. As for `CC(Cc1ccc(C(=O)Oc2ccc(C(=N)N)cc2)o1)C(=O)NCC(=O)O` (centres unmarked) [Compound A-4], the figure is 2.68 nM; as for `CC(Cc1ccc(C(=O)Oc2ccc(C(=N)N)cc2)o1)C(=O)N[C@@H](CO)C(=O)O` (some centres unmarked) [Compound A-5], 1.37 nM; as for `CC(Cc1ccc(C(=O)Oc2ccc(C(=N)N)cc2)o1)C(=O)O` (centres unmarked) [Compound A-6, 3-[5-(4-amidinophenoxycarbonyl)furan-2-yl]-2-methylpropionic acid trifluoroacetic acid salt], 0.62 nM. With `C/C(=C\c1ccc(C(=O)Oc2ccc(C(=N)N)cc2)o1)C(=O)N(CCCO)CC(=O)O` [Compound A-7], the Ki was 1.49 nM. As for `CC(Cc1ccc(C(=O)Oc2ccc(C(=N)N)cc2)o1)C(=O)N(CCCO)CC(=O)O` (centres unmarked) [Compound A-9], the Ki is 3.17 nM. As to `C/C(=C\c1ccc(C(=O)Oc2ccc(C(=N)N)cc2)o1)C(=O)N(CCO)Cc1ccccc1` [Compound A-10], the Ki amounted to 6.73 nM. In the case of `C/C(=C\c1ccc(C(=O)Oc2ccc(C(=N)N)cc2)o1)C(=O)N(CCCO)CCC(=O)O` [Compound A-12, N-{(2E)-3-[5-(4-amidino-2-phenoxycarbonyl)furan-2-yl]-2-methylpropenoyl}-N-(3-hydroxypropyl)-β-alanine trifluoroacetic acid salt] it was 3.31 nM; in that of `C/C(=C\c1ccc(C(=O)Oc2ccc(C(=N)N)cc2)o1)C(=O)N[C@H](C(=O)O)C(C)O` (some centres unmarked) [Compound A-14], 3.52 nM; in that of `CC(Cc1ccc(C(=O)Oc2ccc(C(=N)N)cc2)o1)C(=O)N[C@@H](CCC(=O)O)C(=O)O` (some centres unmarked) [Compound A-15], 1.63 nM. In the case of `CC(Cc1ccc(C(=O)Oc2ccc(C(=N)N)cc2)o1)C(=O)N[C@H](C(=O)O)C(C)O` (some centres unmarked) [Compound A-16] it was 1.88 nM. As for `CC(Cc1ccc(C(=O)Oc2ccc(C(=N)N)cc2)o1)C(=O)N[C@@H](CC(=O)O)C(=O)O` (some centres unmarked) [Compound A-18], the figure is 0.61 nM. In the case of `CC(Cc1ccc(C(=O)Oc2ccc(C(=N)N)cc2)o1)C(=O)N1CCC[C@@H]1C(=O)O` (some centres unmarked) [Compound A-19], the Ki was 1.91 nM. As to `CC(Cc1ccc(C(=O)Oc2ccc(C(=N)N)cc2)o1)C(=O)N1C[C@H](O)C[C@@H]1C(=O)O` (some centres unmarked) [Compound A-20], the Ki amounted to 2.54 nM. In the case of `CC(Cc1ccc(C(=O)Oc2ccc(C(=N)N)cc2)o1)C(=O)N1C[C@@H](O)C[C@H]1C(=O)O` (some centres unmarked) [Compound A-21] it was 4.81 nM; in that of `C[C@H](Cc1ccc(C(=O)Oc2ccc(C(=N)N)cc2)o1)C(=O)N[C@@H](CC(N)=O)C(=O)O` [Compound A-22], 0.95 nM. `C[C@@H](Cc1ccc(C(=O)Oc2ccc(C(=N)N)cc2)o1)C(=O)N[C@@H](CC(N)=O)C(=O)O` [Compound A-23]: the Ki came to 2 nM. In the case of `CC(Cc1ccc(C(=O)Oc2ccc(C(=N)N)cc2)o1)C(=O)N(CC(=O)O)CC(=O)O` (centres unmarked) [Compound A-26] it was 0.68 nM; in that of `CC(Cc1ccc(C(=O)Oc2ccc(C(=N)N)cc2)o1)C(=O)N[C@H](CCC(=O)O)C(=O)O` (some centres unmarked) [Compound A-27], 0.57 nM.

With `CC(Cc1ccc(C(=O)Oc2ccc(C(=N)N)cc2)o1)C(=O)N[C@H](CC(=O)O)C(=O)O` (some centres unmarked) [Compound A-28], the Ki came out at 0.42 nM.

For orientation: Ki means a measure of affinity in units of concentration, obtained from inhibition or displacement.

Source of the values: patent US8609715B2, “Heteroarylcarboxylic acid ester derivative” (Ajinomoto Co., Inc., priority 2009, dated 2013).
